Values quoted from earlier work as cited in the CATMoS acute toxicity set (Mansouri et al. 2021).
Values joined by “and” are separate entries in the source; they are usually repeats but may differ in a detail not shown here. Identical values can stand only once.

Assay: rat acute oral toxicity
Conditions: in vivo

SMILES	LD50
CN(C)c1ccc(C(=C2C=CC(=[N+](C)C)C=C2)c2ccc(N(C)C)cc2)cc1	420 mg/kg
Cc1cn([C@H]2C=C[C@@H](CO)O2)c(=O)[nH]c1=O	4000 mg/kg
CNC(=O)Oc1ccccc1Cl	648 mg/kg
NNC(=O)[C@@H](N)CS	1050 mg/kg
CC(C)OC(=O)C(C(=O)OC(C)C)=C1SCCS1	1190 mg/kg
CCOP(=S)(OCC)SCS(=O)(=O)CC	1.2 mg/kg
O=Cc1ccccc1-c1ccccc1C=O	2830 mg/kg
CCCCOC(=O)/C=C/C(=O)OCCCC	8530 mg/kg
O=S(=O)(Oc1ccc(Cl)cc1Cl)c1ccccc1	1000 mg/kg
COc1ccccc1N1CCN(CC=Cc2ccc3c(c2)CCC(=O)N3)CC1	500 mg/kg
c1ccc2c(c1)CN1CCN=C1N2	900 mg/kg
CC(=Cc1ccccc1)CC(=O)N(CCO)CCO	1500 mg/kg
CCC1=CSC(S)N1 (configuration not stated)	35 mg/kg
Cc1cn(-c2cc(N)cc(C(F)(F)F)c2)cn1	50 mg/kg
CC(=O)OC1CCC(N2CCCCC2)CC1 (configuration not stated)	1950 mg/kg
CCC1(CC)Oc2cccc(OC(=O)NC)c2O1	46 mg/kg
CCN(CC)C(=O)c1cccc(OC)c1O	2080 mg/kg
COCN(C)N=O	700 mg/kg
NCCCC1(CCCN)c2ccccc2-c2ccccc21	620 mg/kg
Oc1c(Cl)cc2[nH]c(C(F)(F)F)nc2c1Cl	58 mg/kg
COC(=O)c1ccc(N=NN(C)C)cc1	52 mg/kg
COc1ccc2c(c1)c(CC(=O)O)c(C)n2C(=O)/C=C/c1ccccc1	900 mg/kg
CSc1nc(N=[N+]=[N-])nc(NC(C)C)n1	3600 mg/kg
CC1(C)CC(N2C(C)(C)CC(N)CC2(C)C)CC(C)(C)N1	2170 mg/kg

SMILES	LD50
C[N+]1(CCC(C2=CCCCC2)c2ccccc2)CCCCC1 (configuration not stated)	1700 mg/kg
COP(=S)(OC)SC(C)N1CC(=O)C(=O)C1 (configuration not stated)	5.6 mg/kg
Cc1cc(C)cc(C(=O)Cl)c1	3160 mg/kg
CCOC(=O)c1c(C)cc2c(CO)n[nH]c(=O)c2c1C	1750 mg/kg
O=C1NCCN1c1ncc([N+](=O)[O-])s1	900 mg/kg
ClC(Cl)C(Cl)C(Cl)C(Cl)Cl (configuration not stated)	400 mg/kg
CCCCCCN	670 mg/kg
O=C1C(Cl)=C(Cl)C(Cl)(Cl)C1(Cl)Cl	178 mg/kg
CCCCCCCCCCCCCCCCCCN(C(=O)CC(C(=O)O)S(=O)(=O)O)C(CC(=O)O)C(=O)O (configuration not stated)	6500 mg/kg
CCCCn1c(=O)n(CCC)c(=O)c2[nH]c(C)nc21	15 mg/kg
CCC1(c2ccccc2)CCNC1=O (configuration not stated)	990 mg/kg
CNP1(=S)OCc2cc([N+](=O)[O-])ccc2O1 (configuration not stated)	125 mg/kg
NC(=O)C(O)(c1ccccc1)c1ccccc1	1550 mg/kg
CN(c1ccc(Cl)cc1)S(=O)(=O)c1ccc(Cl)cc1	2500 mg/kg
C#CCOC(C)=O	250 mg/kg
Cc1cc(S(=O)(=O)O)c2c(C)ccc(C(C)C)cc1-2	6380 mg/kg
CC1CCC=C2N(C)C=C(C(=N)O)C(=O)N21 (configuration not stated)	750 mg/kg
CC(C)=CC(NC(=O)C1=C([O-])c2sc(Cl)cc2S(=O)(=O)N1C)[n+]1ccccc1 (configuration not stated)	10 mg/kg
CC(=O)Nc1ccccc1	800 mg/kg
CC(N)CN (configuration not stated)	2230 mg/kg
CCOP(=O)(OCC)ON=C(C1CC1)C1CC1	7.85 mg/kg
CCCOC(=O)CC	10300 mg/kg
CN(N=O)C(=O)NC(N)=O	450 mg/kg
COP(=O)(OC)Oc1ccc([N+](=O)[O-])c(C)c1	24 mg/kg

SMILES	LD50
COC(CNCc1ccccc1)c1cccc(C(F)(F)F)c1 (configuration not stated)	1720 mg/kg
O=CNC(N1CCOCC1)C(Cl)(Cl)Cl (configuration not stated)	990 mg/kg
CN1CCN(CCCCOc2ccccc2C=Cc2ccccc2)CC1	2300 mg/kg
Cc1cc(Cl)ccc1Cn1nc(C(=O)O)c2ccccc21	4000 mg/kg
CC(C)(Oc1ccc(C(=O)c2ccc(Cl)cc2)cc1)C(=O)O	1240 mg/kg
S=C=Nc1ccc(N=C=S)cc1	21 mg/kg
CC1NCCOC1c1ccccc1 (configuration not stated)	370 mg/kg and 165 mg/kg
C/C(=C/CC[C@@]1(C)C2C[C@@H]3[C@H](C2)C31C)CO	3800 mg/kg
Clc1cc(Cl)c(Cl)c(Cl)c1	1730 mg/kg
Nc1ccc(N)c2c1C(=O)c1ccccc1C2=O	5790 mg/kg
N#CCC(N)=O	3200 mg/kg
CCOP(=S)(OCC)SCCC(F)=C(F)F	681 mg/kg
Cc1cccc(C)c1N(Cn1cccn1)C(=O)CCl	1000 mg/kg
CCOC(C1=NCCCCN1)c1ccccc1 (configuration not stated)	375 mg/kg
NCC(O)c1ccc(O)cc1 (configuration not stated)	1240 mg/kg and 1090 mg/kg
CCOC(=O)[C@H](CCc1ccccc1)N[C@@H](C)C(=O)N(CC(=O)O)C1Cc2ccccc2C1	8260 mg/kg
COc1cc(CCC(C)=O)ccc1O	2580 mg/kg
O=[N+]([O-])c1cc(Cl)cc(-c2cc(Cl)cc([N+](=O)[O-])c2O)c1O	10 mg/kg
CCCCC(C)(C)[C@H](O)C=C[C@H]1[C@H](C)CC(=O)[C@@H]1CC=CCCCC(=O)O	22 mg/kg
OC[C@H]1O[C@@H](n2cnc3c(S)ncnc32)[C@H](O)[C@@H]1O	900 mg/kg
CC[C@@H](COC(=O)c1cc(OC)c(OC)c(OC)c1)N(C)CCN(C)[C@@H](CC)COC(=O)c1cc(OC)c(OC)c(OC)c1	1500 mg/kg
CC(C)(C)CCCCC(=O)O	2070 mg/kg
CCN(C(=O)c1cc(Cl)nc(Cl)c1)C1CC1	78 mg/kg
CNC(=O)c1cc(-c2ccccc2)ccc1OCCO	2700 mg/kg
